This note sets out measurements from a melting point compilation (Tetko et al.; mined from patent text by program, amines drawn as free bases though some values may be those of a salt).

Where only a bound is given, the exact number is not on record here.

The melting point is the temperature, or range, at which the solid turns liquid.

In the case of `CCOC(=O)c1cn(-c2ccc([N+](=O)[O-])cn2)cn1`, the melting point was 212 to 214 °C.

Consider `CC(C)CCCC(C)C1CCC2C3=CC=C4CC(O)CC(O)C4(C)C3CCC21C` (stereo unspecified), for which the melting point was 155 to 158 °C.

The compound `NC(=O)N(O)Cc1cccc(OCCc2csc(-c3ccc(C(F)(F)F)cc3)n2)c1` yielded a melting point of 118 to 120 °C.

As for `Cc1nn(-c2ccc(Cl)nn2)c(C)c1[N+](=O)[O-]`, the melting point was in the range of 164 to 167 °C.

On to `COC(=O)c1c(C(F)(F)F)[nH]c2c(OCc3ccccc3)cc3c(c12)C(CCl)CN3C(=O)OC(C)(C)C` (stereo unspecified), for which the melting point was found to be 162 °C.

Consider `Cc1c(C=O)cc2c(c1C)OCC2`, for which the melting point stood at 60 °C.

For the compound `CCC(=O)Oc1cccc2c1C(=O)c1c(OC(=O)CC)cccc1C2C(=O)CC`, the melting point is 125 °C.

In turn, `O=C(Cc1ccc(Oc2ccc(F)cc2)cc1)NC1(C(=O)O)Cc2ccc(-c3ccc(Cl)cc3)cc2C1` (stereo unspecified) yielded a melting point of 232 to 234 °C.

Regarding `COC(=O)c1ccc2cc([C@H]3OC[C@@H](S[C@H](C)[C@](O)(Cn4cncn4)c4ccc(F)cc4F)CO3)ccc2c1`, the melting point amounted to 153 °C.

On to `CC1CN(c2nc3ccccc3s2)N=C1N` (stereo unspecified), for which the melting point is 207 to 209 °C.

Turning to `N#Cc1cnc2sc(-c3cccc(C=O)c3)cc2c1Nc1cccc2[nH]ccc12`, the melting point is > 245 °C.

On to `CCN(CC)c1ccc(-c2cc(-c3ccc(C(=O)O)cc3)ccc2CCCNC(C)C)cc1C(C)(C)C`, for which the melting point amounted to 253 °C.

Compound `N[C@H]1CC[C@@H](n2ccc(-c3ccc(F)cc3)c2-c2ccncc2)CC1` registered a melting point of 163 to 164 °C.

For the compound `CCCCCCCCCCC(O)C(O)CCC(O)C1CCC(=O)O1` (stereo unspecified), the melting point was in the range of 99 to 100 °C.

On to `Cn1c(=O)c2c(Oc3cccc(Cl)c3)cccc2n2cnc(-c3noc(C4CC4)n3)c12`, for which the melting point was in the range of 201 to 203 °C.

Compound `Cc1cn(C(C)C(=O)N(C)C)nc1-c1ccccc1Cl` (stereo unspecified) had a melting point of 98.5 to 100 °C.

On to `CNc1cc(NS(=O)(=O)c2ccc(NC(C)=O)cc2)nc(N2CCCC2)n1`, for which the melting point is 271 to 274 °C.

`CC1(C)Cc2nc(C3CCCC3)c(C(=O)c3ccc(C(F)(F)F)cc3)c(-c3ccc(F)c(F)c3)c2C(O[Si](C)(C)C(C)(C)C)C1` (stereo unspecified) returned a melting point of 128 to 129 °C.

With `CCn1c(=N)c(-c2ccc(-c3ccccc3)cc2)cc2cnc(Nc3ccccc3)nc21`, the melting point fell in the range of 245 to 249 °C.

`COc1ccc(OC)n2nc(S(=O)(=O)Nc3c(F)cccc3F)nc12` came in with a melting point of 319 to 320 °C.

For `CCCC#Cc1cnc(-c2ccc(C(F)(F)F)cc2)nc1`, the melting point worked out at 140 °C.

`CO[C@@H](C(=O)N[C@H]1CC[C@@H](OC(=O)C2CCCC2)CNC1=O)[C@H](O)[C@@H](O)[C@H](O)/C=C/C(C)(C)C` returned a melting point of 75 to 76 °C.

In turn, `O=C(NCCN1CCC(O)(c2ccc(Cl)cc2)CC1)c1ccccc1` displayed a melting point of 169 °C.

On to `Cc1ccc(C(=O)n2c(C)c(C(C)C(=O)O)c3cc4c(cc32)OCO4)cc1` (stereo unspecified), for which the melting point was 172 to 175 °C.

`Cc1cc(CC(Cc2cc(C)c(O)c(C(C)(C)C)c2)(C(=O)OC2CC(C)(C)N(C)C(C)(C)C2)C(=O)OC2CC(C)(C)N(C)C(C)(C)C2)cc(C(C)(C)C)c1O`: the melting point amounted to 150 °C.

In turn, `COCc1cc2c([N+](=O)[O-])cccc2cn1` returned a melting point of 91 °C.

In turn, `NCC(O)COc1cccc2c1=NC(=O)N=2` (stereo unspecified) came in with a melting point of 188 to 190 °C.

Take `COC(=O)[C@H]1C[C@H](NC(=O)Oc2ccccc2)c2c(Cl)cc(Cl)cc2N1` (relative stereo): the melting point was in the range of 159 to 161 °C.

Compound `NCCc1c[nH]c2cc3c(cc12)C(=O)NCC3` yielded a melting point of 82 to 86 °C.

Take `Cc1ccc(C(=O)n2nc(Nc3ccc(O)cc3)nc2N)cc1`: the melting point is 221 to 223 °C.

As for `CN1CCC(Oc2ccc3ccccc3n2)(c2ccccc2)CC1`, the melting point was 80 to 81 °C.

The compound `CCCOc1ccc(-c2ccc3c(c2)C=C(C(=O)Nc2ccc(CN(C)C4CCOCC4)cc2)CCS3(=O)=O)cc1` gave a melting point of 244 to 247 °C.

Compound `OC1CSC(Oc2ccc(-c3cccnc3F)nc2Cl)C(O)C1O` (stereo unspecified) had a melting point of 153 °C.

`COC(=O)C1=C(C)NC2=C(C(=O)OC2)C1c1ccc2c(c1)OCO2` (stereo unspecified) showed a melting point of 226 to 228 °C.

For `Clc1ccc(-c2cc3ccccc3nc2Cl)c(Cl)c1`, the melting point lay within 120 to 122 °C.

`CCc1noc(-c2cn(-c3cc(Cl)ccc3OC)cn2)n1`: the melting point was 139 to 140 °C.

`O=C1NC(SCC#CCc2ccccc2)C1NC(c1ccccc1)(c1ccccc1)c1ccccc1` (stereo unspecified) displayed a melting point of 145 to 146 °C.

In the case of `O=C(/C=C/c1ccc2c(/C=C/C(=O)N3CCCC3)c[nH]c2c1)N1CCCC1`, the melting point was in the range of 268 to 270 °C.

On to `CN1C2CCC1CC(O)(c1ccc(Cl)cc1)C2` (stereo unspecified), for which the melting point is 186 to 187 °C.

In turn, `C1=C(N2c3ccccc3Sc3ccccc32)N(C2=NCCC2)CC1` showed a melting point of 199 to 201 °C.

`OC1(CC2CO2)c2ccccc2CCc2ccccc21` (stereo unspecified) had a melting point of 116 to 118 °C.

In turn, `CC1(C)Oc2c(ccc(Cl)c2N)C1=O` showed a melting point of 91.5 to 93.5 °C.

`CCCCC(=O)Nc1c(C(=O)c2ccccc2)[nH]c2cc(Cl)ccc12` gave a melting point of 140 to 143 °C.

For the compound `Nc1ccc(C=Cc2ccncn2)cc1`, the melting point fell in the range of 227 to 230 °C.

With `C(=NNc1cc(N2CCOCC2)nc(OCCc2ccccn2)n1)c1c[nH]c2ccccc12`, the melting point was in the range of 160 to 165 °C.

For `C=CCC(O)(C(=O)c1ccc(C)cc1)c1ccc(C)cc1` (stereo unspecified), the melting point was 38 to 40 °C.

As for `COc1ccc(C(=O)NCCBr)c([N+](=O)[O-])c1`, the melting point worked out at 134 °C.

On to `CCCCN(CCCC)S(=O)(=O)c1ccc(-n2oc(C)cc2=O)c([N+](=O)[O-])c1`, for which the melting point lay in the range of 84 to 86 °C.

The compound `CSc1sc(C(=O)N2CCCCCC2)c2c1C(=O)CC(C)(C)C2` gave a melting point of 168 to 170 °C.

`COC(=O)c1c(C(=O)OC)c(-c2ccc(OC)c(OC)c2)c2c(O)c(OC)c(OC)cc2c1O` displayed a melting point of 179 °C.

Take `Cc1c(CNCC(C)(C)C)n(C)c2ccc(NC(=O)c3ccc(OCC4CC4)cc3)cc12`: the melting point lay in the range of 169 to 170 °C.

In the case of `COC(=O)C1c2c(C)c(OC(=O)c3ccc([N+](=O)[O-])cc3)c(C)c(C)c2OC1(C)C` (stereo unspecified), the melting point was 215 to 216 °C.

The compound `CC1(C)C(=O)C(c2ccc(F)c(F)c2)=C1c1ccc(S(C)(=O)=O)cc1` showed a melting point of 118 °C.

In turn, `CC(C(=O)O)c1ccc2c(c1)C(=O)Cc1c(Cl)cccc1S2` (stereo unspecified) gave a melting point of 163 to 164 °C.

In the case of `CC(=O)OC1CSC(Oc2cccnc2Cl)C(OC(C)=O)C1OC(C)=O` (stereo unspecified), the melting point stood at 160 °C.

Regarding `Nc1cc(=O)n(CCCO)c2nc(NC3CCCCC3)ncc12`, the melting point lay within 131 to 132 °C.

In turn, `N#Cc1ccc(C(Cl)=NNc2c(Cl)cc(C(F)(F)F)cc2Cl)cc1` showed a melting point of 168 to 169 °C.

In the case of `Cc1ccccc1-c1ccn(C(C)(C)C(=O)N(C)C)n1`, the melting point was 78.5 to 81 °C.

`Fc1ccc(Nc2cc(Cl)nc(NN=Cc3ccc(OC(F)(F)F)cc3)n2)cc1C(F)(F)F` had a melting point of 162 to 164 °C.

As for `Oc1c(-c2nnn[nH]2)cnc2c(Br)cccc12`, the melting point was > 260 °C.

The compound `NCC(CC(=O)O)CC1CC1` (stereo unspecified) yielded a melting point of 172 to 173 °C.

`COc1ccc(-n2c(Br)ccc2-c2ccc(S(N)(=O)=O)cc2)cc1` registered a melting point of 121 to 123 °C.

Take `Cc1ccc(S(=O)(=O)OC[C@H]2COCCO2)cc1`: the melting point is 53 to 54 °C.

In the case of `CCCCCCC(C)(C)c1ccc(C2CC(=O)C=C(C)C2)c(OCc2ccccc2)c1` (stereo unspecified), the melting point is 60 to 61 °C.

Regarding `CCCCCCCCCCCCCCCCC#CCO`, the melting point stood at 60 °C.

For `Cc1ccccc1-c1nc2c3ccccc3ccn2c1N=Cc1ccc2ccccc2c1Br`, the melting point lay in the range of 250 to 252 °C.

`CCOC(=O)c1nc2ccccc2n1[C@@H]1CC(C)(C)Oc2ccc(C#N)cc21` yielded a melting point of 169 to 171 °C.

`CC(=O)Nc1ccnc(-c2ccncc2)n1` yielded a melting point of 218 to 220 °C.

As for `CN1C(=O)CN=C(c2cccc(C(F)(F)F)c2)c2ccccc21`, the melting point lay within 121 to 122 °C.

On to `CCC1CC2C3CCC4=CC(=O)CCC4=C3C=CC2(C)C1OC(C)=O` (stereo unspecified), for which the melting point lay within 95 to 98 °C.

`N#CCc1ccc(-c2onc3ccccc23)cc1` gave a melting point of 118 to 121 °C.

On to `CN(C)S(=O)(=O)n1c(C(=S)NC(=O)NS(=O)(=O)c2ccccc2Cl)nc2cc(Cl)c(Cl)cc21`, for which the melting point was in the range of 131 to 132 °C.

The compound `COc1cc(O)c(C(=O)C=Cc2ccc(N(C)C)cc2)c(OC)c1` gave a melting point of 197 °C.

In turn, `CC(C)[C@@H]1C[C@@H]([C@H](Br)CC2CCCCC2)OC1=O` yielded a melting point of 95 to 95.5 °C.

`O=c1[nH]ccc2c1C(c1cccc([N+](=O)[O-])c1)N=C(c1ccccc1)N2` (stereo unspecified) showed a melting point of 206 to 207 °C.

With `COC(=O)c1cc(OC)c(Br)c(OC)c1`, the melting point fell in the range of 120 to 122 °C.

Regarding `CCCOC(=O)c1c(CSc2nccn2C)nc2cc(OC)c(OC)cc2c1-c1ccc(OC)c(OC)c1`, the melting point was 131 to 132 °C.

Take `COc1cc(C(F)(F)F)nn1-c1ccc(NC(=O)c2snnc2C)cc1`: the melting point was in the range of 159 to 160 °C.

In turn, `CCN1CC(=O)N(C)c2cc(Nc3ncc(Cl)c(Nc4ccc(OC)c(CNCCO)c4)n3)c(OC)cc2C1` showed a melting point of 65 to 70 °C.

Compound `CC(=O)OC1CSC(Oc2cncc(-c3ccoc3)c2)C(OC(C)=O)C1OC(C)=O` (stereo unspecified) displayed a melting point of 127 °C.

Turning to `N#CC(C#N)=CNc1ccc(C(N)=O)cn1`, the melting point fell in the range of 215 to 218 °C.

`CNC(=O)c1c(C(F)(F)F)nc(C(F)F)c(C(=O)OC)c1NC(C)C` registered a melting point of 128 to 130 °C.

Compound `CCOC(=O)c1cnc(N(CC)Cc2ccc3nc(C)[nH]c(=O)c3c2)s1` came in with a melting point of 188 to 192 °C.

`CC(C)[C@H]1CC[C@H](C(=O)CO)CC1` displayed a melting point of 43 to 44 °C.

For `COC(=O)N(N=Nc1cc(C(F)(F)F)ccc1C#N)c1cc(C(F)(F)F)ccc1C#N`, the melting point lay within 88 to 90 °C.

Compound `O=C(c1ccccc1)N1CCNc2ncc(-c3cccnc3)cc21` yielded a melting point of 219 to 220 °C.
